Measurements as given in paper PMC12250302, “Synthesis, Antimicrobial Activities, and Model of Action of Novel Tetralone Derivatives Containing Aminoguanidinium Moiety” (International Journal of Molecular Sciences, 2025).
In brackets after ≈: the same amount, converted by molar mass.

Tests used:
Experiment in all cases: MIC and MBC testing, broth microdilution
E. faecium ATCC 35667 = assay type: cell-based, Enterococcus faecium; settings: Enterococcus faecium, ATCC35667, E. faecium ATCC 35667; for MIC: 18 h, read-out: MIC; for MBC: read-out: MBC
Source text: (§1) The minimum inhibitory concentrations (MICs) and minimum bactericidal concentrations (MBCs) of the synthesized compounds effective against ESKAPE strains, S. aureus clinical isolates, and MRSA were investigated by the broth dilution method. Levofloxacin is a broad-spectrum antibacterial agent that is widely used in the treatment of ESKAPE infections. Therefore, levofloxacin was selected as the positive control for the preliminary activity screening. DMSO (0.1%) was selected as the negative control.
(§2) The minimum inhibitory concentration (MIC) of all synthesized compounds was tested by the broth microdilution method. In brief, compounds dissolved in DMSO were diluted twice continuously in a 96-well plate with MH broth. The ESKAPE pathogens (E. coli ATCC 25922, S. aureus ATCC 29213, K. pneumoniae ATCC 700603, A. baumannii ATCC 19606, P. aeruginosa ATCC 27853, and E. faecium ATCC 35667), clinical S. aureus isolates (LMY45, LMY46, LMY47, and LMY48) and methicillin-resistant Staphylococcus aureus (MRSA-1 and MRSA-2) were cultured in MH broth to logarithmic growth phase and then diluted to 1 × 10^6 CFU/mL in MH broth. Subsequently, the diluted bacterial solution was mixed with the diluted compound solution in a 96-well plate and incubated at 37 °C for a duration of 18 h. The MIC of the compounds was recorded as the lowest concentration at which no visible growth was observed. […] Each concentration was replicated thrice.

S. aureus ATCC 29213 = assay type: cell-based, Staphylococcus aureus; settings: Staphylococcus aureus, ATCC29213, S. aureus ATCC 29213; for MIC: 18 h, read-out: MIC; for MBC: read-out: MBC
Source text: as §1, §2

[1] = test system: K. pneumoniae ATCC 700603; assay type: cell-based, Klebsiella pneumoniae; settings: Klebsiella pneumoniae; for MIC: ATCC700603, 18 h, read-out: MIC; for MBC: ATCC700603, read-out: MBC
Source text: as §1, §2

A. baumannii ATCC 19606 = assay type: cell-based, Acinetobacter baumannii; settings: Acinetobacter baumannii; for MIC: ATCC19606, 18 h, read-out: MIC; for MBC: ATCC19606, read-out: MBC
Source text: as §1, §2

P. aeruginosa ATCC 27853 = assay type: cell-based, Pseudomonas aeruginosa; settings: Pseudomonas aeruginosa; for MIC: ATCC27853, 18 h, read-out: MIC; for MBC: ATCC27853, read-out: MBC
Source text: as §1, §2

E. coli ATCC 25922 = assay type: cell-based, Escherichia coli; settings: Escherichia coli; for MIC: ATCC25922, 18 h, read-out: MIC; for MBC: ATCC25922, read-out: MBC
Source text: as §1, §2

MRSA-1 = assay type: cell-based, Staphylococcus aureus; settings: Staphylococcus aureus, MRSA-1; for MIC: 18 h, read-out: MIC; for MBC: read-out: MBC
Protocol: (§3) Furthermore, the MBC values of the compounds were detected.
as §2, with “h.” for “h. The MIC of the compounds was recorded as the lowest concentration at which no visible growth was observed.”

MRSA-2 = assay type: cell-based, Staphylococcus aureus; settings: Staphylococcus aureus, MRSA-2; for MIC: 18 h, read-out: MIC; for MBC: read-out: MBC
Protocol: as §3
as §2, with “h.” for “h. The MIC of the compounds was recorded as the lowest concentration at which no visible growth was observed.”

[2] = test system: clinical S. aureus isolate LMY45; assay type: cell-based, Staphylococcus aureus; settings: Staphylococcus aureus, LMY45; for MIC: 18 h, read-out: MIC; for MBC: read-out: MBC
Protocol: as §3
as §2, with “h.” for “h. The MIC of the compounds was recorded as the lowest concentration at which no visible growth was observed.”

[3] = test system: clinical S. aureus isolate LMY46; assay type: cell-based, Staphylococcus aureus; settings: Staphylococcus aureus, LMY46; for MIC: 18 h, read-out: MIC; for MBC: read-out: MBC
Protocol: as §3
as §2, with “h.” for “h. The MIC of the compounds was recorded as the lowest concentration at which no visible growth was observed.”

[4] = test system: clinical S. aureus isolate LMY47; assay type: cell-based, Staphylococcus aureus; settings: Staphylococcus aureus, LMY47; for MIC: 18 h, read-out: MIC; for MBC: read-out: MBC
Protocol: as §3
as §2, with “h.” for “h. The MIC of the compounds was recorded as the lowest concentration at which no visible growth was observed.”

[5] = test system: clinical S. aureus isolate LMY48; assay type: cell-based, Staphylococcus aureus; settings: Staphylococcus aureus, LMY48; for MIC: 18 h, read-out: MIC; for MBC: read-out: MBC
Protocol: as §3
as §2, with “h.” for “h. The MIC of the compounds was recorded as the lowest concentration at which no visible growth was observed.”

| MIC (E. faecium ATCC 35667) | MIC (S. aureus ATCC 29213) | MIC [1] | MIC (A. baumannii ATCC 19606) | MIC (P. aeruginosa ATCC 27853) | MIC (E. coli ATCC 25922) | MIC (MRSA-1) | MIC (MRSA-2) | MIC [2] | MIC [3] | SMILES | MBC (E. faecium ATCC 35667) | MBC (S. aureus ATCC 29213) | MBC [1] | MBC (A. baumannii ATCC 19606) | MBC (P. aeruginosa ATCC 27853) | MBC (E. coli ATCC 25922) | MBC (MRSA-1) | MBC (MRSA-2) | MBC [2] | MBC [3] | also measured |
| --- | --- | --- | --- | --- | --- | --- | --- | --- | --- | --- | --- | --- | --- | --- | --- | --- | --- | --- | --- | --- | --- |
| 4 µg/mL (≈ 12.3 µM) | 4 µg/mL (≈ 12.3 µM) | 16 µg/mL (≈ 49 µM) | 8 µg/mL (≈ 24.5 µM) | 32 µg/mL (≈ 98 µM) | 8 µg/mL (≈ 24.5 µM) | 2 µg/mL (≈ 6.13 µM) | 2 µg/mL (≈ 6.13 µM) | 2 µg/mL (≈ 6.13 µM) | 2 µg/mL (≈ 6.13 µM) | [H]/N=C(\N)NN=C1CCCc2cc(OCc3ccccc3F)ccc21 [Compound 1A, (E)-2-(6-((2-fluorobenzyl)oxy)-3,4-dihydronaphthalen-1(2H)-ylidene)hydrazine-1-carboximidamide] | 16 µg/mL (≈ 49 µM) | 16 µg/mL (≈ 49 µM) | 16 µg/mL (≈ 49 µM) | 16 µg/mL (≈ 49 µM) | > 32 µg/mL | 8 µg/mL (≈ 24.5 µM) | 16 µg/mL (≈ 49 µM) | 8 µg/mL (≈ 24.5 µM) | 4 µg/mL (≈ 12.3 µM) | 8 µg/mL (≈ 24.5 µM) | MIC [4]: 2 µg/mL (≈ 6.13 µM); MBC [4]: 8 µg/mL (≈ 24.5 µM); MIC [5]: 2 µg/mL (≈ 6.13 µM); MBC [5]: 4 µg/mL (≈ 12.3 µM) |
| 4 µg/mL (≈ 12.3 µM) | 4 µg/mL (≈ 12.3 µM) | 16 µg/mL (≈ 49 µM) | 8 µg/mL (≈ 24.5 µM) | 32 µg/mL (≈ 98 µM) | 8 µg/mL (≈ 24.5 µM) | 2 µg/mL (≈ 6.13 µM) | 2 µg/mL (≈ 6.13 µM) | 2 µg/mL (≈ 6.13 µM) | 2 µg/mL (≈ 6.13 µM) | [H]/N=C(\N)NN=C1CCCc2cc(OCc3cccc(F)c3)ccc21 [Compound 1B, (E)-2-(6-((3-fluorobenzyl)oxy)-3,4-dihydronaphthalen-1(2H)-ylidene)hydrazine-1-carboximidamide] | 16 µg/mL (≈ 49 µM) | 16 µg/mL (≈ 49 µM) | 16 µg/mL (≈ 49 µM) | 16 µg/mL (≈ 49 µM) | 32 µg/mL (≈ 98 µM) | 8 µg/mL (≈ 24.5 µM) | 8 µg/mL (≈ 24.5 µM) | 8 µg/mL (≈ 24.5 µM) | 4 µg/mL (≈ 12.3 µM) | 16 µg/mL (≈ 49 µM) | MIC [4]: 2 µg/mL (≈ 6.13 µM); MBC [4]: 8 µg/mL (≈ 24.5 µM); MIC [5]: 4 µg/mL (≈ 12.3 µM); MBC [5]: 4 µg/mL (≈ 12.3 µM) |
| 4 µg/mL (≈ 12.3 µM) | 4 µg/mL (≈ 12.3 µM) | 16 µg/mL (≈ 49 µM) | 8 µg/mL (≈ 24.5 µM) | 32 µg/mL (≈ 98 µM) | 8 µg/mL (≈ 24.5 µM) | 2 µg/mL (≈ 6.13 µM) | 4 µg/mL (≈ 12.3 µM) | 2 µg/mL (≈ 6.13 µM) | 2 µg/mL (≈ 6.13 µM) | [H]/N=C(\N)NN=C1CCCc2cc(OCc3ccc(F)cc3)ccc21 [Compound 1C, (E)-2-(6-((4-fluorobenzyl)oxy)-3,4-dihydronaphthalen-1(2H)-ylidene)hydrazine-1-carboximidamide] | 16 µg/mL (≈ 49 µM) | 16 µg/mL (≈ 49 µM) | 16 µg/mL (≈ 49 µM) | 8 µg/mL (≈ 24.5 µM) | 32 µg/mL (≈ 98 µM) | 8 µg/mL (≈ 24.5 µM) | 16 µg/mL (≈ 49 µM) | 8 µg/mL (≈ 24.5 µM) | 4 µg/mL (≈ 12.3 µM) | 8 µg/mL (≈ 24.5 µM) | MIC [4]: 2 µg/mL (≈ 6.13 µM); MBC [4]: 8 µg/mL (≈ 24.5 µM); MIC [5]: 4 µg/mL (≈ 12.3 µM); MBC [5]: 4 µg/mL (≈ 12.3 µM) |
| 4 µg/mL (≈ 11.6 µM) | 2 µg/mL (≈ 5.81 µM) | 16 µg/mL (≈ 46.5 µM) | 8 µg/mL (≈ 23.2 µM) | 32 µg/mL (≈ 92.9 µM) | 8 µg/mL (≈ 23.2 µM) | 2 µg/mL (≈ 5.81 µM) | 2 µg/mL (≈ 5.81 µM) | 2 µg/mL (≈ 5.81 µM) | 4 µg/mL (≈ 11.6 µM) | [H]/N=C(\N)NN=C1CCCc2cc(OCc3ccc(F)cc3F)ccc21 [Compound 1D, (E)-2-(6-((2,4-difluorobenzyl)oxy)-3,4-dihydronaphthalen-1(2H)-ylidene)hydrazine-1-carboximidamide] | 16 µg/mL (≈ 46.5 µM) | 8 µg/mL (≈ 23.2 µM) | 16 µg/mL (≈ 46.5 µM) | 8 µg/mL (≈ 23.2 µM) | 32 µg/mL (≈ 92.9 µM) | 8 µg/mL (≈ 23.2 µM) | 32 µg/mL (≈ 92.9 µM) | 32 µg/mL (≈ 92.9 µM) | 4 µg/mL (≈ 11.6 µM) | 32 µg/mL (≈ 92.9 µM) | MIC [4]: 2 µg/mL (≈ 5.81 µM); MBC [4]: 8 µg/mL (≈ 23.2 µM); MIC [5]: 2 µg/mL (≈ 5.81 µM); MBC [5]: 4 µg/mL (≈ 11.6 µM) |
